Data from patent publication US9073940B2, “Tricyclic pyrazol amine derivatives” (MERCK SERONO SA, priority 2009, dated 2015).

Test system: 4 PI3K isoforms (Human recombinant GST-PI3K)
Test: PI3K scintillation proximity assay, best IC50 obtained with the four isoforms (alpha, beta, delta, gamma)
Assay type: biochemical
Conditions: best IC50 obtained with the four isoforms of PI3K; read-out: Best potency measured on the 4 PI3K isoforms

| IC50 [nM] | SMILES |
| --- | --- |
| 29 | CC1CN(CCN2CCC[C@H](n3nc(C(=O)N4CCOCC4)c4c3-c3ccccc3S(=O)(=O)C4)C2)CCO1 (single isomer, unassigned) [Example 385, 1-{1-[2-(2-methylmorpholin-4-yl)ethyl]piperidin-3-yl}-3-(morpholin-4-ylcarbonyl)-1,4-dihydrothiochromeno[4,3-c]pyrazole 5,5-dioxide] |
| 30 | O=C(c1nn([C@H]2CCCN(CCN3CCOCC3)C2)c2c1CS(=O)(=O)c1c(Cl)cccc1-2)N1CCOCC1 (single isomer, unassigned) [Example 386, 6-chloro-3-(morpholin-4-ylcarbonyl)-1-[1-(2-morpholin-4-ylethyl)piperidin-3-yl]-1,4-dihydrothiochromeno[4,3-c]pyrazole 5,5-dioxide] |
| 93 | COCCN1CCC[C@H](n2nc(C(=O)N3CCOCC3)c3c2-c2ccc(OC)cc2S(=O)(=O)C3)C1 (single isomer, unassigned) [Example 394, 7-methoxy-1-[1-(2-methoxyethyl)piperidin-3-yl]-3-(morpholin-4-ylcarbonyl)-1,4-dihydrothiochromeno[4,3-c]pyrazole 5,5-dioxide] |
| 1440 | O=C(c1nn([C@H]2CCN(C3CCOCC3)C2)c2c1CS(=O)(=O)c1ccccc1-2)N1CCOCC1 (single isomer, unassigned) [Example 402] |
| 55 | O=C(c1nn([C@@H]2CCN(CCN3CCC(F)CC3)C2)c2c1CS(=O)(=O)c1ccccc1-2)N1CCOCC1 (single isomer, unassigned) [Example 409, 1-{1-[2-(4-fluoropiperidin-1-yl)ethyl]pyrrolidin-3-yl}-3-(morpholin-4-ylcarbonyl)-1,4-dihydrothiochromeno[4,3-c]pyrazole 5,5-dioxide] |
| 3690 | O=C(c1nn([C@H]2CCN(CCN3CCC(F)CC3)C2)c2c1CS(=O)(=O)c1ccccc1-2)N1CCOCC1 (single isomer, unassigned) [Example 410, 1-{1-[2-(4-fluoropiperidin-1-yl)ethyl]pyrrolidin-3-yl}-3-(morpholin-4-ylcarbonyl)-1,4-dihydrothiochromeno[4,3-c]pyrazole 5,5-dioxide] |
| 444 | O=C(c1nn([C@@H]2CCCN(CCn3ccnc3)C2)c2c1CS(=O)(=O)c1ccccc1-2)N1CCOCC1 (single isomer, unassigned) [Example 411, 1-{1-[2-(1H-imidazol-1-yl)ethyl]piperidin-3-yl}-3-(morpholin-4-ylcarbonyl)-1,4-dihydrothiochromeno[4,3-c]pyrazole 5,5-dioxide] |
| 5600 | O=C(c1nn([C@H]2CCCN(CCn3ccnc3)C2)c2c1CS(=O)(=O)c1ccccc1-2)N1CCOCC1 (single isomer, unassigned) [Example 412, 1-{1-[2-(1H-imidazol-1-yl)ethyl]piperidin-3-yl}-3-(morpholin-4-ylcarbonyl)-1,4-dihydrothiochromeno[4,3-c]pyrazole 5,5-dioxide] |
| 16 | O=C(c1nn([C@H]2CCCN(CCC3CCOCC3)C2)c2c1CS(=O)(=O)c1ncccc1-2)N1CCOCC1 (single isomer, unassigned) [Example 422, 3-(morpholin-4-ylcarbonyl)-1-{1-[2-(tetrahydro-2H-pyran-4-yl)ethyl]piperidin-3-yl}-1,4-dihydropyrazolo[3′,4′:4,5]thiopyrano[2,3-b]pyridine 5,5-dioxide] |
| 99 | O=C(c1nn([C@@H]2CCCN(CCC3CCOCC3)C2)c2c1CS(=O)(=O)c1ncccc1-2)N1CCOCC1 (single isomer, unassigned) [Example 423, 3-(morpholin-4-ylcarbonyl)-1-{1-[2-(tetrahydro-2H-pyran-4-yl)ethyl]piperidin-3-yl}-1,4-dihydropyrazolo[3′,4′:4,5]thiopyrano[2,3-b]pyridine 5,5-dioxide] |
| 59 | COc1cccc2c1S(=O)(=O)Cc1c(C(=O)N3CCOCC3)nn([C@H]3CCCN(CCN4CCOCC4)C3)c1-2 (single isomer, unassigned) [Example 424, 6-methoxy-3-(morpholin-4-ylcarbonyl)-1-[1-(2-morpholin-4-ylethyl)piperidin-3-yl]-1,4-dihydrothiochromeno[4,3-c]pyrazole 5,5-dioxide] |
| 128 | COCCN1CCC[C@H](n2nc(C(=O)N3CCOCC3)c3c2-c2cccc(OC)c2S(=O)(=O)C3)C1 (single isomer, unassigned) [Example 428, 6-methoxy-1-[1-(2-methoxyethyl)piperidin-3-yl]-3-(morpholin-4-ylcarbonyl)-1,4-dihydrothiochromeno[4,3-c]pyrazole 5,5-dioxide] |
| 48 | COC(=O)CCN1CCC[C@H](n2nc(C(=O)N3CCOCC3)c3c2-c2ccccc2S(=O)(=O)C3)C1 (single isomer, unassigned) [Example 433, methyl 3-{3-[3-(morpholin-4-ylcarbonyl)-5,5-dioxidothiochromeno[4,3-c]pyrazol-1(4H)-yl]piperidin-1-yl}propanoate] |
| 31 | COCCN1CCC[C@H](n2nc(C(=O)N3CCOCC3)c3c2-c2cccc(F)c2S(=O)(=O)C3)C1 (single isomer, unassigned) [Example 434, 6-Fluoro-1-[1-(2-methoxyethyl)piperidin-3-yl]-3-(morpholin-4-ylcarbonyl)-1,4-dihydrothiochromeno[4,3-c]pyrazole 5,5-dioxide] |
| 80 | O=C1CCCN1CCN1CCC[C@H](n2nc(C(=O)N3CCOCC3)c3c2-c2ccccc2S(=O)(=O)C3)C1 (single isomer, unassigned) [Example 440, 1-(2-{3-[3-(morpholin-4-ylcarbonyl)-5,5-dioxidothiochromeno[4,3-c]pyrazol-1(4H)-yl]piperidin-1-yl}ethyl)pyrrolidin-2-one] |
| 40 | COc1cccc2c1S(=O)(=O)Cc1c(C(=O)N3CCOCC3)nn([C@H]3CCCN(CCN4CC(F)(F)C4)C3)c1-2 (single isomer, unassigned) [Example 442, 1-{1-[2-(3,3-difluoroazetidin-1-yl)ethyl]piperidin-3-yl}-6-methoxy-3-(morpholin-4-ylcarbonyl)-1,4-dihydrothiochromeno[4,3-c]pyrazole 5,5-dioxide] |
| 62 | COc1cccc2c1S(=O)(=O)Cc1c(C(=O)N3CCOCC3)nn([C@H]3CCCN(CCN4CC(F)C4)C3)c1-2 (single isomer, unassigned) [Example 443, 1-{1-[2-(3-fluoroazetidin-1-yl)ethyl]piperidin-3-yl}-6-methoxy-3-(morpholin-4-ylcarbonyl)-1,4-dihydrothiochromeno[4,3-c]pyrazole 5,5-dioxide] |
| 73 | NCCN1CCC[C@H](n2nc(C(=O)N3CCOCC3)c3c2-c2ccccc2S(=O)(=O)C3)C1 (single isomer, unassigned) [Example 452, 2-{3-[3-(morpholin-4-ylcarbonyl)-5,5-dioxidothiochromeno[4,3-c]pyrazol-1(4H)-yl]piperidin-1-yl}ethanamine] |
| 96 | COCCN1CCC[C@H](n2nc(C(=O)N3CCOCC3)c3c2-c2cccc(C)c2S(=O)(=O)C3)C1 (single isomer, unassigned) [Example 467, 1-[1-(2-methoxyethyl)piperidin-3-yl]-6-methyl-3-(morpholin-4-ylcarbonyl)-1,4-dihydrothiochromeno[4,3-c]pyrazole 5,5-dioxide] |
